# In patent publication US7582663B2, “Biaromatic compounds which activate PPARγ type receptors and cosmetic/pharmaceutical compositions comprised thereof” (Galderma Research & Development, priority 2002, dated 2009):
# Target: T1, PPARγ (Homo sapiens, UniProt P37231)
# T1 sequence (P37231 238-505 limits assumed): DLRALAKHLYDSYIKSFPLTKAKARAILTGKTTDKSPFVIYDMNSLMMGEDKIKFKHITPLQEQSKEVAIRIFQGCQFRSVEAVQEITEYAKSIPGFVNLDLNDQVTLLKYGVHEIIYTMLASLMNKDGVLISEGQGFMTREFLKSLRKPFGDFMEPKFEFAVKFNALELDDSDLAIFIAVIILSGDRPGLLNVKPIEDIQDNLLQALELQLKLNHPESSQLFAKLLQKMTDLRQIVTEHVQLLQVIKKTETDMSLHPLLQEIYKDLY
# Assay: Crossed-curve PPAR transactivation test (PPARγ)
# Assay type: cell-based
# Details: HeLN cells stably transfected with Gal-hPPARγ and luciferase reporter; Schild regression against reference agonist; n.a. means not active; read-out: PPARγ Kd app
# Description: The activation of receptors with an agonist (activator) in HeLN cells leads to the expression of a reporter gene, luciferase, which, in the presence of a substrate, generates light. The modulation of the receptors is measured by quantifying the luminescence produced after incubating the cells in the presence of a reference agonist. The ligands displace the agonist from its site. The measurement of the activity is performed by quantifying the light produced. This measurement makes it possible to determine the modulatory activity of the compounds according to the invention by determining the constant that is the affinity of the molecule for the receptor. Since this value can fluctuate depending on the basal activity and the expression of the receptor, it is referred to as Kd apparent (KdApp in nM).
# This is 88 measurement points for 1 product and 1 receptor. The remaining 8 wells are used for repeatability controls.
# Measurements are also taken for total agonist controls with the same products.
# The HeLN cell lines used are stable transfectants containing the plasmids ERE-βGlob-Luc-SV-Neo (reporter gene) and PPAR (α, δ, γ) Gal-hPPAR. These cells are inoculated into 96-well plates at a rate of 10 000 cells per well in 100 μl of DMEM medium without phenol red and supplemented with 10% of defatted calf serum. The plates are then incubated at 37° C. and 7% CO2 for 16 hours.
# The various dilutions of the test products and of the reference ligand are added at a rate of 5 μl per well. The plates are then incubated for 18 hours at 37° C. and 7% CO2. The culture medium is removed by turning over and 100 μl of a 1:1 PBS/luciferine mixture are added to each well. After 5 minutes, the plates are read by the luminescence detector.
smiles,measurement,value
"CCCc1nnc(C(Cc2ccc(-c3cccc(CN(C)C(=O)c4ccc5cc(OCOCCOC)ccc5c4)c3)cc2)OCC)o1 (stereo not drawn) [Example 1, N-{4′-[2-ethoxy-2-(5-propyl[1,3,4]oxadiazol-2-yl)ethyl]biphenyl-3-ylmethyl}-N-methyl-6-(2-methoxyethoxymethoxy)naphthalene-2-carboxylamide]",Kd,250 nM
"CCCc1nnc(C(Cc2ccc(-c3cccc(CN(C)C(=O)c4ccc5cc(C(=O)OC)ccc5c4)c3)cc2)OCC)o1 (stereo not drawn) [Example 7, methyl 6-({4′-[2-ethoxy-2-(5-propyl[1,3,4]oxadiazol-2-yl)ethyl]biphenyl-3-ylmethyl}methylcarbamoyl)naphthalene-2-carboxylate]",Kd,250 nM
"CCCc1nnc(C(Cc2ccc(-c3cccc(CN(C)C(=O)c4ccc(Oc5ccccc5)cc4)c3)cc2)OCC)o1 (stereo not drawn) [Example 2, N-{4′-[2-ethoxy-2-(5-propyl[1,3,4]oxadiazol-2-yl)ethyl]biphenyl-3-ylmethyl}-N-methyl-4-phenoxybenzamide]",Kd,1000 nM
